Results on one molecule are retold here after US20230069886A1, “AROMATIC SULPHONAMIDES DERIVATIVES THAT INHIBITS PDI A3, THEIR SYNTHESIS AND USE” (Uniwersytet Jagiellonski, priority 2020, published 2023).

Values after ≈ are worked out from the molar mass of the structure shown.

In assay [1] the test system is human platelets. The experiment in a line: Light transmission aggregometry of collagen-stimulated human platelet-rich plasma. It counts as cell-based. The conditions noted are these: human PRP, FIG. 2, 3. On the procedure:
Anti-platelet activity of compounds of invention was assessed using light transmission aggregometry assay of human platelet-rich plasma (PRP). Venous blood was obtained from male volunteers at the University Hospital Blood Bank Centre. Volunteer donors had not taken any medicines for the preceding two weeks. Blood was collected into vials containing sodium citrate (3.2%, 9:1 v/v) as an anti-coagulant agent. To obtain platelet rich plasma (PRP), blood was centrifuged at 260×g for 15 min. The platelet […] plasma fraction (used as a blank sample) was obtained by centrifugation of the remaining blood for 10 min at 2600×g. Aggregation of blood platelets was assessed in PRP with a dual channel Chronolog aggregometer (CHRONO-LOG) using a method previously described by Born^35. PRP (500 μl) was equilibrated for 2 min at 37° C. with a continuous stirring at 800 rpm and then stimulated with collagen to cause aggregation. At the beginning of each experiment, concentrations of collagen that induced sub-maximum aggregation response were determined. These concentrations were in the range of […], respectively. All the tested compounds were added 2 min prior to stimulation of platelets with collagen. Transmittance was read 6 min after stimulation of platelets with an agonist. […]

The test system of assay [2] is MCF-7. Briefly: MTT antiproliferative assay, 72 h, with or without estradiol, MCF-7. The assay is classed as cell-based, human. On the procedure: (§1) Anticancer activity of selected compounds of invention, PDI A3-inhibitors has been also tested in vitro in antiproliferative assay in normoxic and hypoxic conditions as well in estrogen-stimulated cancer cells. In the experiment, cells were seeded on 96-well plates (Sarstedt, Germany) in appropriate culture medium at a density of 10^5 cells/mL 24 h before adding the tested compounds. Cells were treated with each compound in four concentrations in the range 0.1-100 μg/mL. […] After 72 h of compound treatment at 37° C., 5% CO2 humid atmosphere and in wo different oxygen level conditions: 21%—normal and <1%—hypoxia. In some experiments the MDA-MB-231 and MCF-7 cells were seeded with or without 200 nM estradiol and after 24 h the tested compounds were added. A previously described sulforhodamine B antiproliferative assay was used with minor modifications (Skehan P et al., 1990). Briefly, cells were fixed with 50 μL/well of 50% (w/v) trichloroacetic acid (Avantor Performance Materials, Gliwice, Poland). After 1 h incubation, plates were washed several times with tap water and 50 μL of 0.4% (w/v) solution of sulforhodamine B (Sigma-Aldrich, Germany) in 1% (v/v) acetic acid (Avantor Performance Materials, Gliwice, Poland) was added to each well. After 30 min incubation at room temperature, unbound dye was washed out with 1% (v/v) acetic acid, whereas bound dye was solubilized with 10 mM unbuffered TRIS (Avantor Performance Materials, Gliwice, Poland) solution. The entire procedure was performed using a BioTek EL-406 washing station (BioTek Instruments, USA). After additional 30 min, absorbance was read using a Biotek Hybrid H4 reader (BioTek Instruments, USA) at 540 nm wavelength. MTT assay was used alternatively for HL-60 cell line and in the experiment in which estrogens are added (specified in the table legend). Absorbance was measured using a Biotek Hybrid H4 reader at 570 nm wavelength for MTT assay.
(§2) Compounds at each concentration were tested in triplicate in a single experiment and each experiment was repeated at least three times independently. Results are presented as mean IC50±SD.

Assay [3] relates to HT-29. The experiment in a line: MTT antiproliferative assay, 72 h, HT-29. It counts as cell-based, human. As to conditions: 72 hours exposition. The procedure:
as §1, with “A previously described sulforhodamine B antiproliferative assay was used with minor modifications (Skehan P et al., 1990).” left out, “MTT assay was used alternatively for HL-60 cell line and in the experiment in which estrogens are added (specified in the table legend).” left out
as §2
Background: Tetrazolium assays rely on reduction of a dye to a coloured formazan, in cell work by metabolically active cells.

Take `COC(=O)C1CN1S(=O)(=O)c1ccc2c(C=O)c(N(C)C)ccc2c1` (centres unmarked) [Compound C-3390, Methyl 1-[[6-(dimethylamino)-5-formyl-2-naphthyl]sulfonyl]aziridine-2-calboxylate]: the “Inhibition of platelet aggregation” value in assay [1] was “lowest EC50”. Further, the “Lower sensitivity after treatment with estradiol in MCF-7” value in assay [2] (estradiol (200 nM), Table 4) is listed as “not observed”. The “IC50 [μg/ml] MCF-7 normal” value in assay [2] (not pretreated with estradiol, 72 hours exposition, MTT) was found to be 3.2 ± 0.3 µg/mL (≈ 8.83 µM). In addition, the “IC50 [μg/ml] MCF-7 +estradiol” value in assay [2] (pretreated with 200 nM estradiol, 72 hours exposition, MTT) is 3.4 ± 0.3 µg/mL (≈ 9.38 µM). Moreover, the “IC50 [μg/ml] HT-29 normal” value in assay [3] amounted to 33.6 ± 2.9 µg/mL (≈ 92.7 µM).
